# Test results reported in ChEMBL document CHEMBL1150641, “Bryoanthrathiophene, a new antiangiogenic constituent from the bryozoan Watersipora subtorquata (d'Orbigny, 1852)” (J Nat Prod, 2002).
# Tests used:
# [1] = Antiangiogenic activity against BAEC assessed as inhibition of bFGF-induced cell proliferation in presence of 10% fetal bovine serum after 3 days by MTT assay; assay type: functional, Bos taurus
# [2] = Antiangiogenic activity against BAEC assessed as inhibition of bFGF-induced cell proliferation after 3 days by MTT assay; assay type: functional, Bos taurus
# BAEC = test: Reduction of tube formation in bFGF-induced BAEC at 20 nM by Matrigel based tube formation assay; assay type: functional, cell-based; details: Bos taurus, TDE = time-dependent effect
compound,measurement,setting,value
COC(=O)c1sc2ccc(O)c3c2c1-c1cccc(O)c1C3=O,IC50,[1],25.8 µM
same,IC50,[2],2.2 µM
Cc1sc2ccc(O)c3c2c1-c1cccc(O)c1C3=O [BRYOANTHRATHIOPHENE],IC50,[1],0.22 µM
same,IC50,[2],0.005 µM
same,Activity,BAEC,tde
O=C1c2cccc(O)c2C(=O)c2c(O)cccc21 [DANTHRON],IC50,[1],20.1 µM
same,IC50,[2],5.7 µM
